From publication doi:10.1101/2025.02.26.640120v1 (biorxiv, 2025)
Read-outs that look alike come from different tables or passages of the source.

Key:
in vitro [1] = conditions: mouse, att-20 cells
in vitro [2] = assay: in vitro; set-up: species or system AtT-20; conditions: mouse, att-20 cells, AtT-20 cell viability at 25µM, % of control
AtT-20 = assay: in vitro; conditions: Ambinter Amb2704313 batch; 24 h
full length USP8 = target: T1, full length USP8 (Homo sapiens, UniProt P40818); assay: Ub-Rho hydrolysis, dose response; assay type: biochemical
T1 sequence (P40818 1-1118): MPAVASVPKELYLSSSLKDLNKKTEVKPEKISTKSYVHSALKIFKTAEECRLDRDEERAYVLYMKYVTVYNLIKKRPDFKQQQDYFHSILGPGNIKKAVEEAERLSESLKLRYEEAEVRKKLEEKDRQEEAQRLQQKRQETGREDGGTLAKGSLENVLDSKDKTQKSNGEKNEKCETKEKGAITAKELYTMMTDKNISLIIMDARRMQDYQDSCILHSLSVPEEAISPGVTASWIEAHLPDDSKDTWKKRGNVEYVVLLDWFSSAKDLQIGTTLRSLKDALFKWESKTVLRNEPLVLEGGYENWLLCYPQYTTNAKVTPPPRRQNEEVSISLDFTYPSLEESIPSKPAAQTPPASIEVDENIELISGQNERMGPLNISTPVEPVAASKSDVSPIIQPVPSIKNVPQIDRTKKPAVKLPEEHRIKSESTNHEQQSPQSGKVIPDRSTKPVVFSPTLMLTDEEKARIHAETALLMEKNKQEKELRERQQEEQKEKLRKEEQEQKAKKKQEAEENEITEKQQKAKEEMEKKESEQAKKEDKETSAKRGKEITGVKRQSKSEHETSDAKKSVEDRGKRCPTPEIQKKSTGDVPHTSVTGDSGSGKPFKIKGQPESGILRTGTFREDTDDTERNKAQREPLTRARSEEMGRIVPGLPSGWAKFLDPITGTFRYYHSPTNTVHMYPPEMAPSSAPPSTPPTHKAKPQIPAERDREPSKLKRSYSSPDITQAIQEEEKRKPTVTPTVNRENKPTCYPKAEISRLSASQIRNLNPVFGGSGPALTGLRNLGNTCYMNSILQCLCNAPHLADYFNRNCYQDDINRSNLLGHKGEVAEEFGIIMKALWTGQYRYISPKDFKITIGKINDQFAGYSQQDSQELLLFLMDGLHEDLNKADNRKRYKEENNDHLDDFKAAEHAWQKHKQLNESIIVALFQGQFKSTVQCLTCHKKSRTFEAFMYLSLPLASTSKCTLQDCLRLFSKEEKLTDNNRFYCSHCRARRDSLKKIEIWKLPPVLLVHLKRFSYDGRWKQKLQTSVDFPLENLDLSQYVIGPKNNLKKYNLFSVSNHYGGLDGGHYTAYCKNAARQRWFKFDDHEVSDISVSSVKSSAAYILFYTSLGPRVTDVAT

in vitro [3] = conditions: mouse, att-20 cells; remark: listed apart in the source

Structure (SMILES): CC(=O)Oc1c(I)cc(I)cc1C(=O)Nc1ccc(Cl)cc1 [Clioxanide]
- viability at 24 h, 25 µM (in vitro [1]): 94.2%

Structure (SMILES): O=C(Nc1ccc([N+](=O)[O-])cc1Cl)c1cc(Cl)ccc1O [Niclosamide]
- viability at 24 h, 27 µM (in vitro [1]): 50%

Structure (SMILES): O=C(Nc1cc(Cl)cc(Cl)c1O)c1c(O)c(Cl)cc(Cl)c1Cl [Oxyclozanide]
- viability at 24 h, 25 µM (in vitro [1]): 98.1%

Structure (SMILES): O=C(Nc1ccc(Oc2ccc(Cl)cc2)c(Cl)c1)c1cc(I)cc(I)c1O [Rafoxanide]
- viability at 24 h, 25 µM (in vitro [2]): 56.2%
- AtT-20 cell viability at 25µM, % of control (AtT-20): 39.3%

Structure (SMILES): O=C(Nc1ccc(Cl)cc1)c1cc(I)cc(I)c1O [ZINC4014104]
- viability at 24 h, 25 µM (in vitro [2]): 58.8%
- IC50 (full length USP8; 0.1 µM Ub-Rho): 11.9 µM

Structure (SMILES): O=C(Nc1cc(Cl)ccc1Cl)c1cc(I)cc(I)c1O [ZINC4014105]
- viability at 24 h, 25 µM (in vitro [2]): 95.7%

Structure (SMILES): Cc1ccc(NC(=O)c2cc(I)cc(I)c2O)cc1 [ZINC4014108]
- viability at 24 h, 25 µM (in vitro [2]): 93.5%
- IC50 (full length USP8; 0.1 µM Ub-Rho): 14.6 µM

Structure (SMILES): O=C(Nc1cc(Cl)cc(Cl)c1)c1cc(I)cc(I)c1O [ZINC4014253]
- viability at 24 h, 25 µM (in vitro [2]): 68%

Structure (SMILES): O=C(Nc1ccc(Cl)cc1Cl)c1cc(I)cc(I)c1O [ZINC4181894]
- viability at 24 h, 25 µM (in vitro [2]): 89.6%

Structure (SMILES): O=C(Nc1ccc(Cl)cc1C(=O)c1ccccc1F)c1ccc(=O)[nH]c1 [ZINC9579366]
- viability at 24 h, 25 µM (in vitro [3]): 103%

Structure (SMILES): O=C(CSc1ccccc1F)Nc1cccc(OCc2ccccn2)c1 [ZINC32922917]
- viability at 24 h, 25 µM (in vitro [2]): 101%

Structure (SMILES): O=C(NCc1cccc(OCc2ccccn2)c1)c1csc(Br)c1 [ZINC40111866]
- viability at 24 h, 25 µM (in vitro [2]): 98.9%

Structure (SMILES): Cc1ccc(NC(=O)Cn2ccccc2=O)c(OCc2ccccc2)c1 [ZINC55784788]
- viability at 24 h, 25 µM (in vitro [3]): 96%

Structure (SMILES): Cc1ccc(C(=O)c2cc(NC(=O)c3cc(I)cc(I)c3O)ccc2Cl)cc1 [ZINC72119086]
- viability at 24 h, 25 µM (in vitro [2]): 109%

Structure (SMILES): O=C(Nc1ccc(O)cc1)c1cc(I)ccc1O [ZINC194061705]
- viability at 24 h, 25 µM (in vitro [3]): 107%

Structure (SMILES): O=C(Nc1ccccc1)c1ccccc1O [salicylanilide backbone]
- IC50 (full length USP8): > 50 µM
